Results reported in PMC3433560 (Bioorganic & medicinal chemistry letters, 2012).

Target: KCNQ1 channels (Homo sapiens, UniProt P51787)
Assay: cell-based

Sequence of KCNQ1 channels (P51787 whole entry): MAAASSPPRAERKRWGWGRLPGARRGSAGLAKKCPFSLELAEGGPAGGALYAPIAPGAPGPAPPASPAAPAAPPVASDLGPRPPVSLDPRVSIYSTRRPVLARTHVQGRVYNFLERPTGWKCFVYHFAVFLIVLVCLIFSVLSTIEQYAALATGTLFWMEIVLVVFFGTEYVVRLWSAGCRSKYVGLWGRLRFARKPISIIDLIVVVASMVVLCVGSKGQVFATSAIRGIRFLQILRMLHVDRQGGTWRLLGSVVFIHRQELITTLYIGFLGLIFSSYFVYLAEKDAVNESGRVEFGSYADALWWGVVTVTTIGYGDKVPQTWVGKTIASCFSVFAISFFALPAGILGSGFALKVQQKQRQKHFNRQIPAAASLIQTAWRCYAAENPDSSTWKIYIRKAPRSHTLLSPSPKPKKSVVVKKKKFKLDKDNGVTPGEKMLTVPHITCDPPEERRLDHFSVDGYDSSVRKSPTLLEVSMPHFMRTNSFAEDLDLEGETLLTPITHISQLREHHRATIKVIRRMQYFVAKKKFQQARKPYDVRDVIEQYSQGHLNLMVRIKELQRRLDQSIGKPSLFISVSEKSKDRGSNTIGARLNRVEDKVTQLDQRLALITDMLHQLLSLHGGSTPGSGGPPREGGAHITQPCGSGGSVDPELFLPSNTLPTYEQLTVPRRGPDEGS

EC50: 660 nM
Compound: COc1ccc(-c2csc(NC(=O)C3CCCCN3S(=O)(=O)c3ccccc3)n2)cc1 (stereo not shown) [compound 5]
